Experiments:
yeast glyoxalase I = biological target: T1, yeast glyoxalase I (Saccharomyces cerevisiae, UniProt P50107); assay: Glyoxalase I enzyme kinetics assay; assay type: biochemical; details: yeast Glx-I, MG, 30° C., phosphate buffer pH 6.6
T1 construct: purchased Sigma
T1 sequence (P50107 1-326): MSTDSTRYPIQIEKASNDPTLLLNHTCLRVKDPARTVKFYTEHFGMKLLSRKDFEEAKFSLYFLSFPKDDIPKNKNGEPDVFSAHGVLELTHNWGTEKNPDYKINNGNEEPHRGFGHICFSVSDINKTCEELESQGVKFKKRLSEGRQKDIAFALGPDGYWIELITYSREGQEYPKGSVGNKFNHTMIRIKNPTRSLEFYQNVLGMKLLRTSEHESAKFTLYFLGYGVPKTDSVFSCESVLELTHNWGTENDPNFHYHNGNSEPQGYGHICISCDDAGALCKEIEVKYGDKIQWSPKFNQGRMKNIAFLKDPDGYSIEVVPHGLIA
Experimental: Glyoxalase I Enzyme Kinetics Assay. The glutathione analog, Ψ-GSH and asparthione were examined for their ability to act as substrates for the yeast glyoxalase I mediated […] of MG. The commercial 40% methylglyoxal solution was distilled to remove polymerization products. Enzyme assays were performed (30° C., 0.05 M phosphate buffer (pH 6.6)) using a thermostated Beckman DU® 7400 spectrophotometer. Fresh solutions of GSH, Ψ-GSH and asparthione were prepared on the day of the assays with distilled, deionized water. In each assay, the cell contained a total volume of 3.0 mL which was no more than 6.0 mM with respect to methylglyoxal and 1.3 mM with respect to GSH or its analogs. […] Data were analyzed utilizing an Enzyme kinetics module of Sigmaplot 9.0 from Systat Software Inc.

SH-SY-5Y cells = assay: cells; assay type: cell-based; details: for % Inhibition of Cell Growth with Aβ1-42 / % Inhibition of Cell Growth without Aβ1-42: compound 1 mM 24 h; for % Inhibition of Cell Growth with Aβ1-42: then 20 μM Aβ1-42 24 h
Experimental: (§1) Cytotoxicity Studies: Protection against β-amyloid 1-42 cytotoxicity in SH-SY-5Y cells was measured by standard MTT assays. SH-SY-5Y cells were seeded in 96-well plates at the density of 30,000 cells/well. After overnight incubation, the cells were exposed to GSH or Ψ-GSH at a concentration of 1 mM for 24 h at 37° C. After 24 h of incubation, the drug-containing medium was replaced with media containing 20 μM β-amyloid 1-42 peptide and the incubation was allowed to continue for additional 24 hours after the addition of the drugs. At the end of the incubation, 20 μL of MTT stock solution (5 mg/mL) was added to each well and incubated for 3 h at 37° C. The MTT reaction medium was discarded and the purple-blue MTT formazan crystals were dissolved by the addition of 100 μL of 0.1 N HCl in isopropanol. The optical density (OD), a reflection mitochondrial function of the viable cells, was read directly with a microplate reader (BioTek SynergyHT, VT, USA) at 580 nm and a reference wavelength of 680 nm. Concentration response graphs were generated for each drug using GraphPad Prism software (GraphPad Software, Inc., San Diego, Calif., USA). Results are expressed as mean percent inhibition of β-amyloid toxicity with the standard error of the mean. In another set of experiments, cells were preincubated with a glyoxalase I inhibitor, S-(p-bromobenzylglutathione) (1 mM) for 24 hours before addition of βamyloid1-42 peptide (20 μM).
as §1, with “Protection” for “Cytotoxicity Studies: Protection”, “against β-amyloid^1-42” for “against β-amyloid 1-42”, “cells/well. […]” for “cells/well. After overnight incubation, the cells were exposed to GSH or Ψ-GSH at a concentration of 1 mM for 24 h at 37° C.”, “μM β-amyloid^1-42” for “μM β-amyloid 1-42”, “20 μl,” for “20 μL”, “mean.” for “mean. In another set of experiments, cells were preincubated with a glyoxalase I inhibitor, S-(p-bromobenzylglutathione) (1 mM) for 24 hours before addition of βamyloid1-42 peptide (20 μM).”

Swiss Webster Mice = assay: ACP (acetaminophen) overdose rescue and effects on normal liver; assay type: in vivo; details: 370 mg/kg ACP + NAC 7.35 mmol/kg
Experimental: 36-Male Swiss Webster Mice (HSD) were fasted over-night and then brought to the lab at 8:00 am the following day and weighed. Food was kept out of the cages until after the final drug injection. Mice were divided into treatment groups as below in Table 2.
Thirty minutes post overdose with 370 mg/kg ACP, the following were evaluated for the groups in Table 2:
N-acetylcysteine (NAC) at 7.35 mmol/kg;
Ψ-GSH at three different doses, 3.67, 2.45 and 1.22 mmol/kg; and
examine effects of Ψ-GSH on normal liver at rescue doses.

| Compound | % Inhibition of Cell Growth with Aβ1-42 (SH-SY-5Y cells; SH-SY-5Y) [%] | % Inhibition of Cell Growth without Aβ1-42 (SH-SY-5Y cells; SH-SY-5Y) [%] | further results |
| --- | --- | --- | --- |
| N[C@@H](CC(=O)N[C@@H](CS)C(=O)NCC(=O)O)C(=O)O [asparthione] |  |  | slope for initial velocity vs. substrate concentration (yeast glyoxalase I): 0.0132±0.0136 |
| HCl•γ-Gla[-Cys-Gly-OtBu]-OtBu [Compound VIII] | 50 | 1 |  |
| γ-Glo-Cys-Gly-OH [II] | 56 | 1 |  |
| [γ-Gla-Cys-Gly-OH]2 [Compound XI] | 24 | 1 |  |
| Boc-γ-Gla-Cys-Gly-OH [Compound V] | 10 | 1 |  |
| Boc-γ-Gla[-Cys(StBu)-Gly-OtBu]-OtBu [Compound 7] | 41 | 0 |  |
| γ-Glt-Cys-Gly-OH [III] | 55 | 2 |  |
| CC(=O)N[C@@H](CS)C(=O)O [NAC, N-acetylcysteine, reference compound] |  |  | death of animals in the group (Swiss Webster Mice): 50% |
| HCl•γ-Gla[Cys-Gly-OCyP]-OcyP [Compound X] | 27 | 0 |  |
| N[C@@H](CCC(=O)N[C@@H](CSCc1ccc(Br)cc1)C(=O)NCC(=O)O)C(=O)O [GSBB, S-p-bromobenzylglutathione, reference compound] |  |  | cell death (SH-SY-5Y cells; 1 mM compound alone, SH-SY-5Y): 10%; viability at 1000 µM (SH-SY-5Y cells; Homo sapiens, SH-SY5Y, Aβ in combination with 1 mM GSBB, read-out: Percentage cell viability): 23.6% |
| HCl•γ-Gla[Cys-Gly-OiPr]-OiPr [Compound IX] | 31 | 0 |  |
| Boc-γ-Gla(OtBu)-Cys-Gly-OtBu [Compound VI] | 18 | 2 |  |
| N-acetyl-γ-Gla-Cys-Gly-OH [IV] | 3 | 0 |  |
